Where two headings read alike, the source gives them in different places.
What was measured:
Experiment in all cases: TGFα-shedding assay-based GPCR screening with chimeric Gα subunit proteins
Assay type in all cases: cell-based
348 GPCRs [1] = target: T1, 348 GPCRs (Homo sapiens, UniProt O43614); details: HCRTR2 (hypocretin (orexin) receptor 2); 10µM, Favipiravir 100μM
T1 construct: expressed in transfected cells; host or cells: HEK293A
T1 sequence (O43614 1-444): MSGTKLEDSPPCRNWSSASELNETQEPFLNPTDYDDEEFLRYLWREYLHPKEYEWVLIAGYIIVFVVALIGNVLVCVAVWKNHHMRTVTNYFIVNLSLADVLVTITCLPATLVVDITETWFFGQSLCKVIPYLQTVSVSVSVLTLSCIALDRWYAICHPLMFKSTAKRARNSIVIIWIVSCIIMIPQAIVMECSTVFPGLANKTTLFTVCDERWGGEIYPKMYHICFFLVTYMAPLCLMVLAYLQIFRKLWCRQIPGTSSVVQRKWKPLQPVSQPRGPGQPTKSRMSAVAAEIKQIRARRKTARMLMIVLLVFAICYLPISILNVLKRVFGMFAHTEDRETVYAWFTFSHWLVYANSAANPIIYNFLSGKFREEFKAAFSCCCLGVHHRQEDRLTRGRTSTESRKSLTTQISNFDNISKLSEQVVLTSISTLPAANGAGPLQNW

348 GPCRs [2] = target: T2, 348 GPCRs (Homo sapiens, UniProt P47890); details: 10µM, Favipiravir 100μM
T2 construct: expressed in transfected cells; host or cells: HEK293A
T2 sequence (P47890 1-313): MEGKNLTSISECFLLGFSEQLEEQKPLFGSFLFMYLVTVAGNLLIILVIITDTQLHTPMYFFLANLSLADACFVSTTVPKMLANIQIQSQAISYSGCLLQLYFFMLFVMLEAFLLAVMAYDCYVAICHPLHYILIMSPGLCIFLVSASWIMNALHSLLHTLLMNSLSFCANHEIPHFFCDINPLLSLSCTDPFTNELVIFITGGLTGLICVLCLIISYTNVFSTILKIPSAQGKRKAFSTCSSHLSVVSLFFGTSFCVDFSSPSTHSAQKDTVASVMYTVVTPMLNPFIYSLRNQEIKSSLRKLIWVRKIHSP

348 GPCRs [3] = target: T3, 348 GPCRs (Homo sapiens, UniProt P46089); details: 10µM, Favipiravir 100μM
T3 construct: expressed in transfected cells; host or cells: HEK293A

348 GPCRs [4] = target: T4, 348 GPCRs (Homo sapiens, UniProt Q96PE1)
T4 sequence (Q96PE1 34-1338): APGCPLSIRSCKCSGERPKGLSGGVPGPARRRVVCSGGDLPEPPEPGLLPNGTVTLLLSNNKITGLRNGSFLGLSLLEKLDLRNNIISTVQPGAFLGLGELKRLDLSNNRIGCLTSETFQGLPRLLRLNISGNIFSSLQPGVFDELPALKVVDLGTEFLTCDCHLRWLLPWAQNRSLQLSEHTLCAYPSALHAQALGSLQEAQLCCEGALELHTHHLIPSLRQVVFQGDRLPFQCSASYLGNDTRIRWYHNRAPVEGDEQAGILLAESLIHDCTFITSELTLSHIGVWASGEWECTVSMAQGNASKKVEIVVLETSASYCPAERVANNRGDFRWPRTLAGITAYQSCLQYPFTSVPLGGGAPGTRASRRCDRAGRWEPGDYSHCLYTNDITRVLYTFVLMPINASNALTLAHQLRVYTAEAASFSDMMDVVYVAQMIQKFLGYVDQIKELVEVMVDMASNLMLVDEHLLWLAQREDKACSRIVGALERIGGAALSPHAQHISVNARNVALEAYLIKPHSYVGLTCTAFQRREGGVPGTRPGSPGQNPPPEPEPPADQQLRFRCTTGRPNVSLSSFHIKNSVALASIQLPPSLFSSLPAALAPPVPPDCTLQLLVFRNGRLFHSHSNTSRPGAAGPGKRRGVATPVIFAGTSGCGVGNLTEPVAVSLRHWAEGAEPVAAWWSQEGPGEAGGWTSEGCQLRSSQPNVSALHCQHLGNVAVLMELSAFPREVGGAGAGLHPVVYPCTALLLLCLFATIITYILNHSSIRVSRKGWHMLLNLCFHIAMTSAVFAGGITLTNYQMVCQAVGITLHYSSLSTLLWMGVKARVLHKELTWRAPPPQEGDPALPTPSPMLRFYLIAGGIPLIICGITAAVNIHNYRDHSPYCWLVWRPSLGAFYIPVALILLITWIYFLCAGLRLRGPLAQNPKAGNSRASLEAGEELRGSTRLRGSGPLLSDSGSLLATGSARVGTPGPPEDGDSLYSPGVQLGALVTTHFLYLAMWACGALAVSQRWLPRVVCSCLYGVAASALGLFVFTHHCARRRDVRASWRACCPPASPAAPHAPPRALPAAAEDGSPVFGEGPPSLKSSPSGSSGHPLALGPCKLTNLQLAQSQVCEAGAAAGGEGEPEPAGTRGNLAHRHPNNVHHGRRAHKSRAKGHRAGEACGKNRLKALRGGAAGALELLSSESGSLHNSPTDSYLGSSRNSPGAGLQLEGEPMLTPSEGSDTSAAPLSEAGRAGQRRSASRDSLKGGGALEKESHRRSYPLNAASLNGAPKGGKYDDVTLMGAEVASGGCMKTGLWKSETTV

348 GPCRs [5] = target: T5, 348 GPCRs (Homo sapiens, UniProt O15552); details: 10µM, Favipiravir 100μM
T5 construct: expressed in transfected cells; host or cells: HEK293A
T5 sequence (O15552 1-330): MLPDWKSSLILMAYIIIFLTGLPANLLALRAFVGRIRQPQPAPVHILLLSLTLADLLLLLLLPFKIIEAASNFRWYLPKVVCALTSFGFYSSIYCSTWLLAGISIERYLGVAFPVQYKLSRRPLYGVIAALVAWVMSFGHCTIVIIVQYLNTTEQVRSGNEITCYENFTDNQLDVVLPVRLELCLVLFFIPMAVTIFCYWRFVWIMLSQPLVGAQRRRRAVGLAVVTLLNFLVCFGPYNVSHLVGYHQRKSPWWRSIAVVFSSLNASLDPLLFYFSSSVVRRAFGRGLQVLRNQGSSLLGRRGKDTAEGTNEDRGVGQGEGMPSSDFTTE

[6] = OR1G1 (olfactory receptor, family 1, subfamily G, member 1), read-out: % GPCR activation compared to TPA
[7] = GPR3 (G protein-coupled receptor 3), read-out: % GPCR activation compared to TPA
[8] = GPCR GPR124 (Adhesion G Protein-Coupled Receptor A2 (ADGRA2)), read-out: % GPCR activation compared to TPA
[9] = FFA2 (free fatty acid receptor 2), read-out: % GPCR activation compared to TPA
[10] = read-out: % GPCR activation compared to TPA, OR1G1 (olfactory receptor, family 1, subfamily G, member 1)
[11] = read-out: % GPCR activation compared to TPA, GPR3 (G protein-coupled receptor 3)
[12] = read-out: % GPCR activation compared to TPA, GPCR GPR124 (Adhesion G Protein-Coupled Receptor A2 (ADGRA2))
[13] = read-out: % GPCR activation compared to TPA, FFA2 (free fatty acid receptor 2)

T3 sequence (P46089 whole entry): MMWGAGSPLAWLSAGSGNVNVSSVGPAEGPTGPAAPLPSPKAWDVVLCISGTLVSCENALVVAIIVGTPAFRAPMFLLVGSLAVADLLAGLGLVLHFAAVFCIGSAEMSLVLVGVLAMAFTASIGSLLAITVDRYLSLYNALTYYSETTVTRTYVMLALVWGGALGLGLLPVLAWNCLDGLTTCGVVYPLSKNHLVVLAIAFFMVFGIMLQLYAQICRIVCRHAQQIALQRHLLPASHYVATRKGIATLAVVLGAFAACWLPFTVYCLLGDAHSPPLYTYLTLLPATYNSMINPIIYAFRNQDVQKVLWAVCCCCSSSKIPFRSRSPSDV

Structure (SMILES) | % GPCR activation compared to TPA (348 GPCRs [1]) [%] | activation at 10 µM (348 GPCRs [2]; [6]) [%] | activation at 100 µM (348 GPCRs [3]; [7]) [%] | activation at 10 µM (348 GPCRs [4]; [8]) [%] | activation at 10 µM (348 GPCRs [5]; [9]) [%] | activation at 100 µM (348 GPCRs [4]; GPCR GPR124 (Adhesion G Protein-Coupled Receptor A2 (ADGRA2)), 100μM, read-out: % GPCR activation compared to TPA) [%] | activation at 10 µM (348 GPCRs [2]; [10]) [%] | activation at 100 µM (348 GPCRs [3]; [11]) [%] | activation at 10 µM (348 GPCRs [4]; [12]) [%] | activation at 10 µM (348 GPCRs [5]; [13]) [%]
CC(C)C(=O)OC[C@H]1O[C@@H](n2ccc(NO)nc2=O)[C@H](O)[C@@H]1O [molnupiravir] | 0.4774 | -3.31 | -0.728 | -0.928 | -4.09 | – | – | – | – | –
CCC(CC)COC(=O)[C@H](C)N[P@](=O)(OC[C@H]1O[C@@](C#N)(c2ccc3c(N)ncnn23)[C@H](O)[C@@H]1O)Oc1ccccc1 [remdesivir] | 0.0002648 | – | – | – | – | – | -1.69 | 9.85 | -0.926 | -1.72
CC(C)OC(=O)[C@H](C)N[P@](=O)(OC[C@H]1O[C@@H](n2ccc(=O)[nH]c2=O)[C@](C)(F)[C@@H]1O)Oc1ccccc1 [sofosbuvir] | -1.966 | – | – | – | – | – | -2.98 | -0.512 | 1.09 | 0.172

Continued, in another order:

% GPCR activation compared to TPA (348 GPCRs [1]) [%] | activation at 10 µM (348 GPCRs [2]; [6]) [%] | activation at 100 µM (348 GPCRs [3]; [7]) [%] | activation at 10 µM (348 GPCRs [4]; [8]) [%] | activation at 10 µM (348 GPCRs [5]; [9]) [%] | activation at 100 µM (348 GPCRs [4]; GPCR GPR124 (Adhesion G Protein-Coupled Receptor A2 (ADGRA2)), 100μM, read-out: % GPCR activation compared to TPA) [%] | Structure (SMILES) | activation at 10 µM (348 GPCRs [2]; [10]) [%] | activation at 100 µM (348 GPCRs [3]; [11]) [%] | activation at 10 µM (348 GPCRs [4]; [12]) [%] | activation at 10 µM (348 GPCRs [5]; [13]) [%]
2.174 | -1.68 | 7.48 | 0.29 | -2.64 | – | N#C[C@@]1(c2ccc3c(N)ncnn23)O[C@H](CO)[C@@H](O)[C@H]1O [GS441524] | – | – | – | –
0.7248 | 0.965 | 3.58 | – | -0.501 | -1.17 | NC(=O)c1nc(F)cnc1O [favipiravir, 6-fluoro-3-hydroxy-2-pyrazinecarboxamide] | – | – | – | –

Source: publication PMC10175918 (Communications Biology, 2023)
